Paper PMC7264150 (Nature Communications, 2020)

Biological target: T1, Pl-TcdA1 (Photorhabdus luminescens, UniProt Q9RN43)
T1 construct: gene tcdA
Format: binding

CC(=O)N[C@H]1C(O)O[C@H](CO)[C@@H](O[C@@H]2O[C@H](CO)[C@H](O)[C@H](O)[C@H]2O[C@@H]2O[C@@H](C)[C@@H](O)[C@@H](O)[C@@H]2O)[C@@H]1O[C@@H]1O[C@@H](C)[C@@H](O)[C@@H](O)[C@@H]1O (stereo partly shown) [Lewis Y]
glycan microarray, AlexaFluor488-labelled toxin: tetrasaccharides Lewis Y and sialyl-Lewis X interacted strongly with Pl-TcdA1
